The values that follow come from patent publication US20260364040A1, “MONO- AND BIS-NITROSYLATED PROPANEDIOLS FOR USE IN THE TREATMENT OF A THROMBOEMBOLIC DISEASE” (ATTGENO AB, priority 2023, published 2026).

For series [1] the following is noted: rabbit model, Cederqvist et al. 1994; cited from earlier work.
Series [2] is described as follows: Circulation times and in vivo half-life estimation from injections and infusions. Also on record: species or system pig. Here is the method: Intraarterial injections in the left CCA and left CFA and central intravenous injections (PDNO 0.5-4 micromol) were used to estimate in vivo half-life of PDNO in anesthetized, instrumented pigs (n=2). Regional blood flow, mean systemic arterial pressure (MAP), end-tidal nitric oxide (ETNO) and arterial blood gases were measured.
In addition, 10 ml of 5% sodium bicarbonate solution was injected at these sites.
Between the local intraarterial infusion routes, intravenous infusions in the central venous catheter at four doses (3, 10, 30 and 100 nmol kg^−1 min^−1, 10 minutes per dose) were given for reference. There was a washout period of 60 minutes between the PDNO administration.
Primary outcome was effects on regional blood flow, systemic blood pressure and end-tidal nitric oxide (ETNO). […]
The median (25-75 percentiles) circulation times from the carotid and femoral intraarterial injection sites were to first exhalation with increased ETNO 13.5 s (12.3-15.4, n=13) s and 13.7 s (12.9-15.2, n=9), respectively, and from the central intravenous injection site 5.0 s (4.3-5.9, n=29) and 5.3 s (3.3-5.8, n=9). The circulation times between the carotid and femoral intraarterial injection sites to the central intravenous injection site were calculated to 8.5 s and 8.4 s as depicted in Table 1 below.

Series [3] deals with SFLLRN (PAR-1 agonist) stimulated platelets in human whole blood. Nature of the series: Platelet aggregation in human whole blood (impedance, Multiplate aggregometer). The class given is cell-based. The conditions noted are these: drug added 2 min prior to SFLLRN, impedance 10 min, AUC, n=4. The protocol: FIG. 8: Platelet aggregation in whole blood. Suspensions of human blood were stimulated by the PAR-1 agonist […] in the absence (open bar) and presence of either PDNO (black bar) or nitroglycerine (grey bar). The NO-donating drugs were introduced to the blood 2 min prior to SFLLRN. Platelet aggregation response was analysed as increases in impedance over a period of 10 min and is expressed as area under the curve. The bars represent mean value and standard deviation (n=4).
Potential anti-thrombotic effect of PDNO in vitro was evaluated by analysing aggregation responses to the thrombin mimetic hexapeptide SFLLRN. […]
Heparinized human or pig blood (0.5 ml) was diluted 1:1 with Krebs-Ringer glucose (KRG) buffer (isotone saline, pH 7.4). […] Platelet aggregation in vitro (human blood) and ex vivo (pig blood) was measured as increase in electrical impedance between two platinum electrodes. […]
In the in vitro experiments, PDNO or nitroglycerine (used as control drug) was introduced 2 min prior to the hexapeptide SFLLRN. […] Aggregation responses were registered during 10 min and expressed as area under curve.
Platelet aggregation in whole blood (human blood with heparin as anticoagulant) was analysed as increases in electrical resistance (impedance changes between two platinum electrodes) using a Multiplate aggregometer.

Series [4] concerns VASP (Ser239 phosphorylation), NO/cyclic GMP signalling in human platelets. The series is described as follows: Ser239-specific VASP phosphorylation in isolated human platelets (Western blotting). It counts as cell-based. The conditions noted are these: 5 min exposure, unstimulated and SFLLRN-stimulated platelets, n=3. Here is the method: FIG. 9: Increases in Ser 239-specific VASP phosphorylation in platelets. Suspensions of isolated human blood platelets were stimulated by either PDNO or nitroglycerine. The platelets were exposed to the NO-donors for 5 min followed by Western immuno blotting for phosphoVASP detection. These experiments were conducted in unstimulated and SFLLRN-stimulated platelets. The PAR-1 agonist was added 2 min after PDNO/nitroglycerine. The bars represent mean value and standard deviation (n=3).
In platelets and vascular smooth muscle cells, the cytoskeleton-binding protein vasodilator-stimulated phosphoprotein (VASP) is a main molecular target for NO/cyclic GMP signalling pathway. Ser239 specific phosphorylation of VASP following NO exposure of platelets is believed to be a pivotal molecular mechanism underlying anti-aggregatory/antithrombotic effects of NO. The effect of PDNO on Ser239-specific VASP phosphorylation was analysed by Western (immuno) blotting.
Aliquots of isolated platelet suspensions were exposed to either PDNO or nitroglyceine for 5 min. This series of experiments were conduced both on resting and SFLLRN-stimulated platelets.
Specifically, NO/cyclic GMP-induced phosphorylation of Ser239 on vasodilator-stimulated phosphoproteins (VASP) was detected by Western blotting. […]

As for `CCON=O` [ethyl nitrite], in series [1], the “correlation between in vivo generation of NO and effects on blood pressure” value was “significant correlation between the in vivo generation of NO and effects on blood pressure”. As for `CCCCON=O` [butyl nitrite], in series [1], the “correlation between in vivo generation of NO and effects on blood pressure” value was “significant correlation between the in vivo generation of NO and effects on blood pressure”. Turning to `CC(C)CO[N+](=O)[O-]` [isobutyl nitrate], the “correlation between in vivo generation of NO and effects on blood pressure” value in series [1] is “significant correlation between the in vivo generation of NO and effects on blood pressure”. For `CC(C)CCON=O` [isoamyl nitrite], the “correlation between in vivo generation of NO and effects on blood pressure” value in series [1] was “significant correlation between the in vivo generation of NO and effects on blood pressure”. Regarding `CC(C)CON=O` [isobutyl nitrite], the “correlation between in vivo generation of NO and effects on blood pressure” value in series [1] was “significant correlation between the in vivo generation of NO and effects on blood pressure”. For the molecule `O=C([O-])O.[Na+]` [Sodium bicarbonate], the “Circulation time (median) between intraarterial and intravenous injection site” value in series [2] (carotid artery and intravenous) is 7.0 s; in series [2] (femoral artery and intravenous) it was 8.9 s. Consider `O=[N+]([O-])OCC(CO[N+](=O)[O-])O[N+](=O)[O-]` [nitroglycerine, 1,2,3-propanetriol-nitrate], for which, in series [1], the “correlation between in vivo generation of NO and effects on blood pressure” value was “significant correlation between the in vivo generation of NO and effects on blood pressure”. For the same molecule, the “SFLLRN-induced platelet aggregation, whole blood” value in series [3] was “not nitroglycerine significantly inhibited SFLLRN-induced platelet aggregation”. In addition, the “Ser239-specific VASP phosphorylation” value in series [4] is “not nitroglycerine provoked a significant increase in Ser239-specific VASP phosphorylation”.
